Experimental data published in the supplement of paper PMC10307832.

Assays:
Experiment in all cases: relative viability (nuclei count vs DMSO), 5 days (fraction); higher = more cells survive
XMD13-2 + OSI-027 = compound: C1CC1C(=O)NC2=NNC3=C2C=CC(=C3)C4=CC(=CC=C4)C(=O)NC5CC5 [XMD13-2] + COc1cccc2cc(-c3nc([C@H]4CC[C@H](C(=O)O)CC4)n4ncnc(N)c34)[nH]c12 [OSI-027] (partner 0.5 µM)
Procedure, shortened: (§1)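 A single step with final 0.05% Triton X-100, 1% formaldehyde and 1 ug/ml Hoechst fixed the cells and stained nuclei 5 days after treatment. Lung cancer cell lines in 1536-well plates had been treated by pin tool the day after seeding with one drug alone or a fixed anchor-drug dose plus five library-drug doses (not always all listed) in √10 steps, and nuclei were counted on 4× images. Relative viability is the ratio of nuclei in treated wells to nuclei in vehicle wells, taken as the median of duplicate plates.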

ALW-II-49-7 + OSI-027 = compound: Cc1ccc(C(=O)Nc2cccc(C(F)(F)F)c2)cc1Nc1cncc(C(N)=O)c1 [ALW-II-49-7] + COc1cccc2cc(-c3nc([C@H]4CC[C@H](C(=O)O)CC4)n4ncnc(N)c34)[nH]c12 [OSI-027] (partner 0.5 µM)
Procedure, shortened: as §1

Dasatinib + Navitoclax = compound: Cc1nc(Nc2ncc(C(=O)Nc3c(C)cccc3Cl)s2)cc(N2CCN(CCO)CC2)n1 [Dasatinib] + CC1(C)CCC(c2ccc(Cl)cc2)=C(CN2CCN(c3ccc(C(=O)NS(=O)(=O)c4ccc(N[C@H](CCN5CCOCC5)CSc5ccccc5)c(S(=O)(=O)C(F)(F)F)c4)cc3)CC2)C1 [Navitoclax] (partner 0.5 µM)
Procedure, shortened: as §1

Dasatinib + Foretinib = compound: Cc1nc(Nc2ncc(C(=O)Nc3c(C)cccc3Cl)s2)cc(N2CCN(CCO)CC2)n1 [Dasatinib] + COc1cc2c(Oc3ccc(NC(=O)C4(C(=O)Nc5ccc(F)cc5)CC4)cc3F)ccnc2cc1OCCCN1CCOCC1 [Foretinib] (partner 0.25 µM)
Procedure, shortened: as §1

Cell Line | relative viability (XMD13-2 + OSI-027; first compound 0.05 µM) | relative viability (XMD13-2 + OSI-027; first compound 0.1581 µM) | relative viability (XMD13-2 + OSI-027; first compound 0.5 µM) | relative viability (XMD13-2 + OSI-027; first compound 1.581 µM) | relative viability (XMD13-2 + OSI-027; first compound 5 µM) | relative viability (ALW-II-49-7 + OSI-027; first compound 0.08 µM) | relative viability (ALW-II-49-7 + OSI-027; first compound 0.253 µM) | relative viability (ALW-II-49-7 + OSI-027; first compound 2.53 µM) | relative viability (ALW-II-49-7 + OSI-027; first compound 8 µM) | relative viability (Dasatinib + Navitoclax; first compound 0.005 µM) | relative viability (Dasatinib + Navitoclax; first compound 0.01581 µM) | relative viability (Dasatinib + Navitoclax; first compound 0.05 µM) | relative viability (Dasatinib + Navitoclax; first compound 0.1581 µM) | relative viability (Dasatinib + Navitoclax; first compound 0.5 µM) | relative viability (Dasatinib + Foretinib; first compound 0.005 µM) | relative viability (Dasatinib + Foretinib; first compound 0.01581 µM) | relative viability (Dasatinib + Foretinib; first compound 0.05 µM) | relative viability (Dasatinib + Foretinib; first compound 0.1581 µM) | relative viability (Dasatinib + Foretinib; first compound 0.5 µM) | relative viability (ALW-II-49-7 + OSI-027; first compound 0.8 µM)
HCC-78 | 0.432 | 0.394 | 0.317 | 0.38 | 0.345 | 0.34 | 0.394 | 0.36 | 0.395 | 0.619 | 0.58 | 0.688 | 0.601 | 0.247 | 0.549 | 0.461 | 0.384 | 0.302 | 0.249 | –
HCC-366 | 1.02 | 0.598 | 1.15 | 0.888 | 0.983 | 0.977 | 1.17 | 0.985 | 0.627 | 0.561 | 0.601 | 0.39 | 0.569 | 0.217 | 0.739 | 0.588 | 0.543 | 0.563 | 0.449 | 0.731
HCC-827 | 0.911 | 0.747 | 0.708 | 0.753 | 0.675 | 0.737 | 0.696 | 0.621 | 0.64 | 1.01 | 1.01 | 1.01 | 0.719 | 0.188 | 1.06 | 0.898 | 0.748 | 0.288 | 0.0947 | 0.714
HOP-62 | 0.998 | 0.896 | 0.783 | 0.895 | 0.792 | 0.768 | 0.96 | 0.721 | 0.608 | 1.02 | 1.01 | 0.829 | 1.09 | 0.372 | 1.18 | 1.12 | 1 | 0.518 | 0.197 | 0.875
IA-LM | – | – | – | – | – | – | – | – | – | 0.878 | 0.923 | 1.04 | 0.876 | 0.665 | 1.16 | 1.09 | 1.1 | 0.634 | 0.462 | –
LC-2-ad | 0.86 | 0.78 | 0.972 | 0.723 | 0.67 | 0.733 | 0.843 | 0.73 | 0.771 | 0.553 | 0.418 | 0.341 | 0.13 | 0.1 | 1.04 | 0.802 | 0.473 | 0.369 | 0.293 | 0.783
LCLC-97TM1 | 0.612 | 0.404 | 0.603 | 0.433 | 0.445 | 0.514 | 0.46 | 0.527 | 0.379 | 0.448 | 0.488 | 0.579 | 0.413 | 0.282 | 0.968 | 0.955 | 1.04 | 0.78 | 0.461 | 0.466
LCLC-103H | 0.588 | 0.497 | 0.47 | 0.509 | 0.506 | 0.43 | 0.462 | 0.463 | 0.377 | – | – | – | – | – | 0.725 | 0.626 | 0.55 | 0.378 | 0.157 | 0.474
NCI-H358 | 0.97 | 0.686 | 0.848 | 0.726 | 0.442 | 0.722 | 0.788 | 0.756 | 0.611 | – | – | – | – | – | 0.649 | 0.532 | 0.433 | 0.198 | 0.162 | 0.628
NCI-H522 | 0.71 | 0.692 | 0.742 | 0.701 | 0.658 | 0.795 | 0.753 | 0.718 | 0.749 | – | – | – | – | – | – | – | – | – | – | 0.634
NCI-H650 | 0.522 | 0.512 | 0.599 | 0.474 | 0.522 | 0.519 | 0.509 | 0.419 | 0.391 | – | – | – | – | – | 1.02 | 0.875 | 1.01 | 0.759 | 0.475 | 0.511
NCI-H661 | 0.848 | 0.688 | 0.786 | 0.63 | 0.494 | 0.552 | 0.773 | 0.78 | 0.452 | – | – | – | – | – | 1.02 | 1.03 | 0.964 | 0.735 | 0.599 | 0.781
NCI-H1299 | – | – | – | – | – | – | – | – | – | 1.04 | 1.05 | 1.1 | 0.6 | 0.31 | 1.11 | 0.708 | 1.09 | 0.386 | 0.255 | –
NCI-H1563 | 0.811 | 0.731 | 0.74 | 0.788 | 0.751 | 0.717 | 0.71 | 0.782 | 0.679 | – | – | – | – | – | 0.82 | 0.751 | 0.746 | 0.578 | 0.517 | 0.731
NCI-H1623 | 0.417 | 0.43 | 0.408 | 0.363 | 0.462 | 0.416 | 0.408 | 0.351 | 0.357 | – | – | – | – | – | 0.855 | 0.675 | 0.8 | 0.672 | 0.457 | 0.371
NCI-H1648 | 0.251 | 0.266 | 0.241 | 0.291 | 0.259 | 0.254 | 0.264 | 0.255 | 0.215 | – | – | – | – | – | – | – | – | – | – | 0.264
NCI-H1703 | – | – | – | – | – | – | – | – | – | 0.567 | 0.38 | 0.238 | 0.17 | 0.146 | 0.276 | 0.292 | 0.23 | 0.202 | 0.262 | –
NCI-H1792 | 0.772 | 0.813 | 0.696 | 0.914 | 0.669 | 0.805 | 0.774 | 0.149 | 0.376 | 0.627 | 0.606 | 0.541 | 0.402 | 0.296 | – | – | – | – | – | 0.609
NCI-H2342 | 0.581 | 0.658 | 0.728 | 0.643 | 0.597 | 0.532 | 0.535 | 0.592 | 0.562 | – | – | – | – | – | 1.02 | 0.662 | 0.977 | 0.51 | 0.34 | 0.602
SW 900 | 0.654 | 0.707 | 0.686 | 0.457 | 0.635 | 0.426 | 0.642 | 0.445 | 0.347 | – | – | – | – | – | 0.685 | 0.608 | 0.787 | 0.476 | 0.225 | 0.555
